We go through 19 molecules from patent US8980879B2 (AbbVie Inc., priority 2013, dated 2015).

In one assay the target is T1, BRD4 (BDI_K57-E168) (Homo sapiens, UniProt O60885).
T1 construct: BD1: amino acids K57-E168; made in house
The experiment in a line: TR-FRET bromodomain binding assay, BRD4 first bromodomain. Conditions: His-tagged BD1, 100 nM Alexa647 probe; assay protocol D or F as given per row in c1; Ki calculated from IC50. As for the experimental part: (§1) A time-resolved fluorescence resonance energy transfer (TR-FRET) assay was used to determine the affinities of compounds of the Examples listed in Table 1 for each bromodomain of BRD4. His-tagged first (BD1: amino acids K57-E168) and second (BD2: amino acids E352-E168) bromodomains of BRD4 were expressed and purified. An Alexa647-labeled BET-inhibitor was used as the fluorescent probe in the assay.
(§2) Compound dilution series were prepared in DMSO via an approximately 3-fold serial dilution from one of the following:
(§3) Assay method D: 500 μM-8.5 nM
(§4) Assay method E: 0.47 mM to 7.8 nM
(§5) Assay method F: 250 μM-4.2 nM
(§6) Assay method G: 0.047 mM to 0.78 nM
(§7) or 5-fold serial dilution from one of the following:
(§8) Assay method A: 2.5 mM-800 nM
(§9) Assay method B: 2.5 mM-797 nM
(§10) For Assay methods A, C, D, and F: Compounds were then diluted 6:100 in assay buffer (20 mM Sodium Phosphate, pH 6.0, 50 mM NaCl, 1 mM Ethylenediaminetetraacetic acid, 0.01% Triton X-100, 1 mM DL-Dithiothreitol) to yield 3× working solutions. Six microliters (μL) of the working solution was then transferred to white, low-volume assay plates (Costar #3673). A 1.5× assay mixture containing His-tagged bromodomain, Europium-conjugated anti-His antibody (Invitrogen PV5596) and the Alexa-647-conjugated probe molecule was also prepared. Twelve μL of this solution were added to the assay plate to reach a final volume of 18 μL.
(§11) For Assay methods B, E, and G: Compound dilutions were added directly into white, low-volume assay plates (Perkin Elmer Proxiplate 384 Plus#6008280) using a Labcyte Echo in conjunction with Labcyte Access and Thermo Multidrop CombinL robotics. Compounds were then suspended in eight microliters (μL) of assay buffer (20 mM Sodium Phosphate, pH 6.0, 50 mM NaCl, 1 mM Ethylenediaminetetraacetic acid disodium salt dihydrate, 0.01% Triton X-100, 1 mM DL-Dithiothreitol) containing His-tagged bromodomain, Europium-conjugated anti-His antibody (Invitrogen PV5596) and Alexa-647-conjugated probe.
(§12) The final concentration of 1× assay mixture for assay methods A, B, C, D, E, F, and G contains 2% DMSO, 8 nM His-tagged bromodomain, 1 nM Europium-conjugated anti-His-tag antibody and 100 nM or 30 nM probe (for BDI or BDII, respectively) and compound concentration in the range of: 50 μM-16 nM for method A, 49.02 μM-15.63 nM for method B, 25 μM-423 pM for method C, 10 μM-169 pM for method D, 9.19 μM 150 pM for method E, 5 μM-85 pM for method F, and 0.92 μM-15 pM for method G.
(§13) After a one-hour equilibration at room temperature, TR-FRET ratios were determined using an Envision multilabel plate reader (Ex 340, Em 495/520).
(§14) TR-FRET data were normalized to the means of 24 no-compound controls (“high”) and 8 controls containing 1 μM un-labeled probe (“low”). Percent inhibition was plotted as a function of compound concentration and the data were fit with the 4 parameter logistic equation to obtain IC50s Inhibition constants (Ki) were calculated from the IC50s, probe Kd and probe concentration. Typical Z′ values were between 0.65 and 0.75. The minimum significant ratio was determined to evaluate assay reproducibility (Eastwood et al., (2006) J Biomol Screen, 11: 253-261). The MSR was determined to be 2.03 for BDI and 1.93 for BDII, and a moving MSR (last six run MSR overtime) for both BDI and BDII was typically <3.

For assay [1], the system named is breast cancer cell line MX-1. The experiment in a line: MX-1 cell line proliferation assay. Format: cell-based. As to conditions: Homo sapiens, MX1; MX-1 cells, 3-day (72 h) proliferation, Cell Titer Glo; read-out: Cellular proliferation: EC50. As for the experimental part: MX-1 Cell Line Proliferation Assay
The impact of compounds of the Examples on cancer cell proliferation was determined using the breast cancer cell line MX-1 (ATCC) in a 3-day proliferation assay and the data are reported in Table 1. MX-1 cells were maintained in RPMI 1640 medium (Sigma) supplemented with 10% FBS at 37 C.° and an atmosphere of 5% CO2. For compound testing, MX-1 cells were plated in 96-well black bottom plates at a density of 5000 cells/well in 90 μL of culture media and incubated at 37° overnight to allow cell adhesion and spreading. Compound dilution series were prepared in DMSO via a 3-fold serial dilution from 3 mM to 0.1 μM. The DMSO dilution series were then diluted 1:100 in phosphate buffered saline, and 10 μL of the resulted solution were added to the appropriate wells of the MX-1 cell plate. The final compound concentrations in the wells were 3, 1, 0.3, 0.1, 0.03, 0.01, 0.003, 0.001, 0.0003 and 0.0001 μM.
Luminescence readings from the Cell Titer Glo assay were normalized to the DMSO treated cells and analyzed using the GraphPad Prism software with sigmoidal curve fitting to obtain EC50s. The minimum significant ratio (MSR) was determined to evaluate assay reproducibility (Eastwood et al., (2006) J Biomol Screen, 11: 253-261). The overall MSR was determined to be 2.1 and a moving MSR (last six run MSR overtime) has been <2.

In the next assay the target is T2, BRD4 (BDII_E352-M457) (Homo sapiens, UniProt O60885).
T2 construct: protocol; made in house
The experiment in a line: TR-FRET bromodomain binding assay, BRD4 second bromodomain. As for the experimental part: as §1, §2, §3, §4, §5, §6, §7, §8, §9, §10, §11, §12, §13, §14

The subject of assay [2] is LPS induced IL-6 production. The experiment in a line: LPS (lipopolysaccharide) induced IL-6 production mouse assay. Format: in vivo, mice. As to conditions: CD1 female mice, 3 mg/kg oral 1 h before LPS 2.5 mg/kg ip, serum IL-6 2 h after LPS; p<0.05. As for the experimental part:
LPS (Lipopolysaccharide) Induced IL-6 Production Mouse Assay
Compounds of the Examples listed in Table 2 were assayed for their ability to inhibit LPS (lipopolysaccharide) induced IL-6 (Interleukin-6) production in mice. Fox Chase SCID® female mice (Charles Rivers Labs, 5 per group) or CD1 female mice (5 mice per group) received an intraperitoneal challenge of lipopolysaccharide (2.5 mg/kg, L2630 E. coli 0111:B4) one hour after oral administration of compounds. Mice were euthanized 2 hours after lipopolysaccharide injection, blood was removed by cardiac puncture, and then the serum harvested from the blood samples was frozen at −80° C. On the day of the assay the serum samples were brought to room temperature and then diluted 1:20 in phosphate-buffered saline containing 2% bovine serum albumin. Interleukin-6 measurements were performed using a cytokine assay from Meso Scale Discovery (Gaithersburg, Md.) for mouse serum analysis according to the manufacturer's protocol and read on a SECTOR Imager 6000 (Meso Scale Discovery, Gaithersburg, Md.) instrument. Statistical analysis was performed using Prism software (version 5.0) incorporating Dunnett's one way ANOVA. The IL-6 mean and standard deviation of the group of vehicle treated animals were compared with the IL-6 mean and standard deviation of the group treated with drug. A p value <0.05 means that there is less than a 5% probability that the mean values in the two groups are equal.

Take `CN1CCN(CC(=O)Nc2ccc3c(c2)-c2cn(C)c4c(=O)[nH]cc(c24)CN3c2ccc(F)cc2)CC1` [Example 36]: the figures for the Ki at BRD4 (BDI_K57-E168) and at BRD4 (BDII_E352-M457) were 1.34 nM and 23.2 nM, respectively. Further, the EC50 in assay [1] came out at 16.8 nM. The “% inhibition at 3 mg/kg (LPS induced IL-6 production)” value in assay [2] is 68%.

Take `Cn1cc2c3c(c[nH]c(=O)c31)CN(c1ccc(F)cc1)c1ccc(C(=O)NCc3cc(F)ccc3Cl)cc1-2` [Example 60]: the Ki on BRD4 (BDI_K57-E168) is 3.2 nM; on BRD4 (BDII_E352-M457), 46.1 nM. The EC50 in assay [1] amounted to 75.5 nM.

For the molecule `Cn1cc2c3c(c[nH]c(=O)c31)CN(c1ccc(F)cc1)c1ccc(C(=O)NCc3cnn(Cc4ccccc4)c3)cc1-2` [Example 62], the Ki at BRD4 (BDI_K57-E168) was 1.62 nM; at BRD4 (BDII_E352-M457), 33.1 nM. Besides, the EC50 in assay [1] was 65.6 nM.

On to `Cn1cc2c3c(c[nH]c(=O)c31)CN(c1ccc(F)cc1)c1ccc(C(=O)NCc3ccccc3)cc1-2` [Example 63], for which the Ki is 1.98 nM on BRD4 (BDI_K57-E168) and 22 nM at BRD4 (BDII_E352-M457). Also, the EC50 in assay [1] stood at 49.9 nM.

As for `COc1ccc(F)cc1CC(=O)Nc1ccc2c(c1)-c1cn(C)c3c(=O)[nH]cc(c13)CN2c1ccc(F)cc1` [Example 65], the figures for the Ki on BRD4 (BDI_K57-E168) and on BRD4 (BDII_E352-M457) were 3.92 nM and 44.9 nM, respectively. Also, the EC50 in assay [1] amounted to 55.5 nM.

In the case of `Cn1cc2c3c(c[nH]c(=O)c31)CN(c1ccc(F)cc1)c1ccc(NC(=O)Cc3cc(F)ccc3[N+](=O)[O-])cc1-2` [Example 66], the Ki at BRD4 (BDI_K57-E168) was 2.14 nM; at BRD4 (BDII_E352-M457) it was 30.1 nM. The EC50 in assay [1] was determined as 44.6 nM.

Turning to `CCS(=O)(=O)Nc1cnc2c(c1)-c1cn(C)c3c(=O)[nH]cc(c13)CN2c1ccc(F)cc1F` [Example 68], the results for the Ki at BRD4 (BDI_K57-E168) and at BRD4 (BDII_E352-M457) were 1.26 nM and 1.79 nM, respectively. Further, the EC50 in assay [1] worked out at 17.5 nM.

Regarding `Cn1cc2c3c(c[nH]c(=O)c31)CN(c1ccc(Cl)cc1)c1ncc(N)cc1-2` [Example 69], the Ki at BRD4 (BDI_K57-E168) was 0.78 nM; on BRD4 (BDII_E352-M457), 1.89 nM. Further, the EC50 in assay [1] was 4.4 nM.

Consider `CCS(=O)(=O)Nc1cnc2c(c1)-c1cn(C)c3c(=O)[nH]cc(c13)CN2c1ccc(Cl)cc1` [Example 70], for which the Ki on BRD4 (BDI_K57-E168) is 0.79 nM; on BRD4 (BDII_E352-M457) it was 0.708 nM. Also, the EC50 in assay [1] stood at 24.4 nM.

As to `Cn1cc2c3c(c[nH]c(=O)c31)CN(c1ccc(Cl)cc1)c1ncc(NS(C)(=O)=O)cc1-2` [Example 71], the Ki on BRD4 (BDI_K57-E168) was 1.65 nM; on BRD4 (BDII_E352-M457), 2.21 nM. In assay [1], the EC50 was 35.6 nM.

As for `CC(=O)Nc1cnc2c(c1)-c1cn(C)c3c(=O)[nH]cc(c13)CN2c1ccc(Cl)cc1` [Example 72], the values for the Ki on BRD4 (BDI_K57-E168) and at BRD4 (BDII_E352-M457) were 2.56 nM and 4.41 nM, respectively. Also, the EC50 in assay [1] was 10.1 nM. The “% inhibition at 3 mg/kg (LPS induced IL-6 production)” value in assay [2] came out at 63%.

As to `CCS(=O)(=O)Nc1ccc2c(c1)-c1cn(C)c3c(=O)[nH]cc(c13)CN2C1CCN(C(C)=O)CC1` [Example 74], the Ki on BRD4 (BDI_K57-E168) is 3.61 nM; at BRD4 (BDII_E352-M457), 17 nM. Also, the EC50 in assay [1] is greater than 1000 nM.

For `CC(=O)N1CCC(N2Cc3c[nH]c(=O)c4c3c(cn4C)-c3cc(NC(=O)Cc4cnc(C)s4)ccc32)CC1` [Example 75], the Ki at BRD4 (BDI_K57-E168) was 2.54 nM; on BRD4 (BDII_E352-M457) it was 54.6 nM. In addition, the EC50 in assay [1] is greater than 1000 nM.

Take `CC(=O)N1CCC(N2Cc3c[nH]c(=O)c4c3c(cn4C)-c3cc(NC(=O)Cc4cc(F)ccc4Cl)ccc32)CC1` [Example 76]: the Ki was 3.46 nM at BRD4 (BDI_K57-E168) and 17.5 nM on BRD4 (BDII_E352-M457). For the same molecule, the EC50 in assay [1] is 332 nM.

As for `CC(=O)Nc1ccc2c(c1)-c1cn(C)c3c(=O)[nH]cc(c13)CN2C1CCN(C(C)=O)CC1` [Example 77], the values for the Ki on BRD4 (BDI_K57-E168) and at BRD4 (BDII_E352-M457) were 4.6 nM and 112 nM, respectively. Further, the EC50 in assay [1] is greater than 1000 nM.

With `Cn1cc2c3c(c[nH]c(=O)c31)CN(c1ccc(F)cc1F)c1c-2cc(CS(C)(=O)=O)cc1C1CC1` [Example 78], the Ki on BRD4 (BDI_K57-E168) was 1.29 nM; on BRD4 (BDII_E352-M457), 0.85 nM. For the same molecule, the EC50 in assay [1] worked out at 6.28 nM.

`Cn1cc2c3c(c[nH]c(=O)c31)CN(C1CCN(C(=O)OC(C)(C)C)CC1)c1ccc(CS(C)(=O)=O)cc1-2` [Example 80]: the results for the Ki on BRD4 (BDI_K57-E168) and at BRD4 (BDII_E352-M457) were 3.04 nM and 14.5 nM, respectively. The EC50 in assay [1] came out at 106 nM.

Consider `COC(=O)N1Cc2c[nH]c(=O)c3c2c(cn3C)-c2cc(CS(C)(=O)=O)ccc21` [Example 81], for which the Ki at BRD4 (BDI_K57-E168) was 4.97 nM; at BRD4 (BDII_E352-M457) it was 11.1 nM. Moreover, the EC50 in assay [1] amounted to 77.9 nM.

For the molecule `CCS(=O)(=O)Nc1ccc2c(c1)-c1cn(C)c3c(=O)[nH]cc(c13)CN2c1ccccn1` [Example 82], the results for the Ki on BRD4 (BDI_K57-E168) and on BRD4 (BDII_E352-M457) were 0.83 nM and 1.47 nM, respectively. In addition, the EC50 in assay [1] is 4.93 nM.
